# US8067424B2, “Selective inhibitors for cyclin-dependent kinases” (Emory University, priority 2007, dated 2011)
# Read-outs that look alike come from different tables or passages of the source.
# Columns and labels:
# [1] = molecular target: T1, CDK7 complex (CDK7, Cyclin H, MAT1) (Homo sapiens, UniProt P50613); test: CDK7/CycH/MAT1 trimeric complex kinase assay (PKLight luciferase); format: biochemical; conditions: for IC50: Table 2; for remaining activity at 0.1 µM / CDK7 % remaining kinase activity after incubation with 100 nM of compound: 100 nM, mean of three (standard deviation); for remaining activity at 0.1 µM: read-out: CDK7 % remaining kinase activity after incubation with 100 nM of compound
# T1 construct: purchased Proqinase GmbH, Germany
# Protocol: (§1) Prepared test compounds, prepared at concentrations of 1000, 100, 10, 1 and 0.1 μM. Diluted 1 in 40 in ddH2O and added 1 μl of test compound or DMSO (controls). • 3. Incubated at 30° C. for 30 mins in a water bath. • 4. Added 10 µl of ATP […] per reaction to get a final concentration of 2 μM ATP. • 5. Made up to 25 μl total volume with ddH2O • 6. Incubated for 20 min at 30° C. in a water bath • 7. Used the PKLight Kinase assay (Cambrex, UK), add to each reaction 10 μl of stop reaction and mix thoroughly. Incubated at room temp for 10 min. • 8. Added 20 μ1 Luciferase reaction mixture (Cambrex, UK) per reaction, and further incubated at room temp for 10 mins and determined luciferase activities according to manufacturer's methods. Kinase reactions were added to 96 well microplates and luciferase activities determined using a Packard TopCount NXT™ luminescent counter (TopCount 9904). The luminometer was programmed to take a read time of 0.1 integrated reading and emission of light was detectable at 560 nm. • 9. All kinase inhibition assays were carried out in triplicate. As the bioluminescent signal is inversely proportional to kinase activity, all values were deducted from the no enzyme control. These values were then plotted utilizing the enzyme control as a reference to 100% activity and compared to all other values.
# CDK2/cyclin A complex = molecular target: T2, CDK2/cyclin A complex (Homo sapiens, UniProt P24941); test: CDK2/cyclin A kinase assay (as for CDK7); format: biochemical; conditions: for remaining activity at 0.1 µM: read-out: CDK2 % remaining kinase activity after incubation with 100 nM of compound
# T2 construct: purchased Proqinase GmbH, Germany
# Protocol: as §1
# (§2) Inhibition of CDK2 was assessed using 50 ng CDK2/cyclin A complex (Proqinase GmbH, Germany), as above for CDK7 Inhibition of CDK9 was assessed using 100 ng CDK9/cyclin T complex (Proqinase GmbH, Germany), as above for CDK7.
# CDK9/cyclin T complex = molecular target: T3, CDK9/cyclin T complex (Homo sapiens, UniProt P50750); test: CDK9/cyclin T kinase assay (as for CDK7); format: biochemical; conditions: for remaining activity at 0.1 µM: 100 nM, mean of three (standard deviation), read-out: CDK9 % remaining kinase activity after incubation with 100 nM of compound
# T3 construct: purchased Proqinase GmbH, Germany
# Protocol: as §1, §2
# CDK 5 = CDK 5 (Homo sapiens, UniProt Q00535); test: CDK5 in vitro kinase inhibition (protocol similar to Example 14); format: biochemical; conditions: 100 nM; mean of three (standard deviation); read-out: CDK5 % remaining kinase activity after incubation with 100 nM of compound
# Protocol: as §1
# (§3) This example provides in vitro kinase inhibition data for various compounds within the scope of the invention versus CDK 2, CDK 4, CDK, 5, CDK 7 and CDK 9. The protocol was similar to that shown in Example 14 Inhibition of the protein kinases was performed in triplicate using each compound at 100 nM.
# (§4) This example provides in vitro kinase inhibition data for various compounds within the scope of the invention versus CDK 2, CDK 4, CDK, 5, CDK 7 and CDK 9.
# MCF-7 cell line = test: cells; format: cell-based; conditions: MCF-7, SRB assay, 24 hours; for IC (total growth inhibition): read-out: TGI; for IC50: mean of three experiments, read-out: IC50
# Protocol: In the SRB assay, sixteen hours following seeding of 3×10^3 MCF-7 cells in 96-well plates in DMEM containing 10% FCS, the medium was replaced with fresh medium supplemented with the compound of interest, or an equivalent volume of the vehicle control (DMSO), at concentrations, ranging from 0.1 to 100 μM. The compounds were added to three well to provide replicates. The cells were fixed after 24 hours, using 40% (w/v) TCA, for one hour at 4° C., washed five times with distilled, deionised H2O, followed by incubation with 0.4% (w/v) sulphorhodamine B (SRB) in 1% acetic acid for one hour at room temperature. Excess dye was removed with five washes with 1% acetic acid and drying at room temperature. Absorbance at 480 nm was determined following solubilisation of the dye by the addition of 100 μl of 10 mM Tris base to each well.
# SRB values (absorbance at 480 nm) for the vehicle control (DMSO) were set at 100% and absorbance at 480 nm for the compound treatments were calculated relative to the control.
# CDK4 = CDK4 (Homo sapiens, UniProt P11802); test: CDK4 in vitro kinase inhibition (protocol similar to Example 14); format: biochemical; conditions: 100 nM; mean of three (standard deviation); read-out: CDK4 % remaining kinase activity after incubation with 100 nM of compound
# Protocol: as §1, §3, §4
# [2] = 100 nM, mean of three (standard deviation)
# T1 sequence (P50613 whole entry): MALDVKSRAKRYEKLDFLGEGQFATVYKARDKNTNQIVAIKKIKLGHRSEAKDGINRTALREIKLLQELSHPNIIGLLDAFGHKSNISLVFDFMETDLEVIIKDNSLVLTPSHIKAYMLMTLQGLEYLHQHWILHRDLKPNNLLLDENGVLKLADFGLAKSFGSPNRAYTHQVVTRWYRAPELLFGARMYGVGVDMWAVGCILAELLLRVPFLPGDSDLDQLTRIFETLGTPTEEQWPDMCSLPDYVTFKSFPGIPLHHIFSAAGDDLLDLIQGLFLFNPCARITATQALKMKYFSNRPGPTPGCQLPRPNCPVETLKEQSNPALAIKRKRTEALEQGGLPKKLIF
# T1 sequence (P51946 whole entry partner): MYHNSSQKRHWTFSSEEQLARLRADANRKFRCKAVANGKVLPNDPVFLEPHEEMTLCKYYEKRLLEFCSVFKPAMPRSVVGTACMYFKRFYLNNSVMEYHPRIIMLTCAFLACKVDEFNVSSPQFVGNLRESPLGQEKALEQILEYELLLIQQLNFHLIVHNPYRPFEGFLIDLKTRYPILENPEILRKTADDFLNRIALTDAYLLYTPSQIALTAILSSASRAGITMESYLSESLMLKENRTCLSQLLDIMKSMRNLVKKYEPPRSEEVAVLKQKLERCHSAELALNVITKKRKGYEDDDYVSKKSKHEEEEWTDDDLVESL
# T1 sequence (P51948 whole entry partner): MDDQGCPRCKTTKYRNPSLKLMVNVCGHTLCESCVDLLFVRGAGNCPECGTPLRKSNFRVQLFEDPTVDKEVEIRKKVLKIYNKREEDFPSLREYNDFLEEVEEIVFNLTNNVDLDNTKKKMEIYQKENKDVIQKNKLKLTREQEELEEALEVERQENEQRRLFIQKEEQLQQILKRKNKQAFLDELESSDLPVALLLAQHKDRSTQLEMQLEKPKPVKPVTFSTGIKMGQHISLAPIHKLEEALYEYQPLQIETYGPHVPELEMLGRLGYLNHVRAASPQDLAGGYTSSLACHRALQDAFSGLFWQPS
# Chain of CDK4 (P11802 whole entry): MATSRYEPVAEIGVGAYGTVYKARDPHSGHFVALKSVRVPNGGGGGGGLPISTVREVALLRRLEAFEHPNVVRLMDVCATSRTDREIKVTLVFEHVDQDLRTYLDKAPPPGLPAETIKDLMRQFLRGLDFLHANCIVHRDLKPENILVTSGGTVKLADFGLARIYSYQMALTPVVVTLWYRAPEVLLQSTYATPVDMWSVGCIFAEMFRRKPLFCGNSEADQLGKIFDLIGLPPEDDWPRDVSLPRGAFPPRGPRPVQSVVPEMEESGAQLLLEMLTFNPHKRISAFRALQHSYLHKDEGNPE
# Chain of CDK4 (P24385 whole entry partner): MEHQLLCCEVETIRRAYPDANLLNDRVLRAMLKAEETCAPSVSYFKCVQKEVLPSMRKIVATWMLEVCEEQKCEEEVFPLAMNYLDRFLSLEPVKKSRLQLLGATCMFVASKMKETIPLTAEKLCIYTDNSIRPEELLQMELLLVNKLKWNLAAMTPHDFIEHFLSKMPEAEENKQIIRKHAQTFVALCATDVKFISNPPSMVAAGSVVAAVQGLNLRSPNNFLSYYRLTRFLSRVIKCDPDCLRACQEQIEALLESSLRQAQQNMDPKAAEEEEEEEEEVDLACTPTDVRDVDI
# T3 sequence (P50750 whole entry): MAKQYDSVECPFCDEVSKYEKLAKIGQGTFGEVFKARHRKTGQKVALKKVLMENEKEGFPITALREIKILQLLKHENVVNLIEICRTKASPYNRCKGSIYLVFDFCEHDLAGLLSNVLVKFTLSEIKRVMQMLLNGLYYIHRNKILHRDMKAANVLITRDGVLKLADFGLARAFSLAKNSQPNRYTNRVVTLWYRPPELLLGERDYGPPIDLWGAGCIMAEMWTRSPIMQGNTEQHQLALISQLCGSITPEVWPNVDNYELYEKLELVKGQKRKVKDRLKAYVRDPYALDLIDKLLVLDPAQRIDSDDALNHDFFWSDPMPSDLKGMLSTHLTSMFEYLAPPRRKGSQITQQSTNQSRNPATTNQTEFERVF
# T3 sequence (O60563 whole entry partner): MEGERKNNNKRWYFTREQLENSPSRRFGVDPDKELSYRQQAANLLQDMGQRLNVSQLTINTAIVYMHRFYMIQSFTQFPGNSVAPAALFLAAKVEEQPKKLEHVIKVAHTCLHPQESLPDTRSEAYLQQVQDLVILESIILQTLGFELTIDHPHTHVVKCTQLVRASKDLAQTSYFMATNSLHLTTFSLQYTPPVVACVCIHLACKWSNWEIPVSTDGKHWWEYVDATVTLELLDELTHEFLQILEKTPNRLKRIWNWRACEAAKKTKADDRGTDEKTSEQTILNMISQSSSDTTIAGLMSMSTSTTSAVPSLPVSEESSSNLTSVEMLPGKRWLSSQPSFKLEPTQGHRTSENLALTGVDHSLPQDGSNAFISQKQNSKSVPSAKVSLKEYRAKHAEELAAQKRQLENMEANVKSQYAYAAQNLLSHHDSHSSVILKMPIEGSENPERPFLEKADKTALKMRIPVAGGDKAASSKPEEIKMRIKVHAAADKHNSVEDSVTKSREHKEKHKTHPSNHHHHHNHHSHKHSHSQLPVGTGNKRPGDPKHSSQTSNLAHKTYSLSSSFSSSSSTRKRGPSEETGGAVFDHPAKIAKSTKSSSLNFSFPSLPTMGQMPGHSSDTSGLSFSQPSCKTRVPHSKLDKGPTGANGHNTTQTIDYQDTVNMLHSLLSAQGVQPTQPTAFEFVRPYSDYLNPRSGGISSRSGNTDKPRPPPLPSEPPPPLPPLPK
# Chain of CDK 5 (Q00535 whole entry): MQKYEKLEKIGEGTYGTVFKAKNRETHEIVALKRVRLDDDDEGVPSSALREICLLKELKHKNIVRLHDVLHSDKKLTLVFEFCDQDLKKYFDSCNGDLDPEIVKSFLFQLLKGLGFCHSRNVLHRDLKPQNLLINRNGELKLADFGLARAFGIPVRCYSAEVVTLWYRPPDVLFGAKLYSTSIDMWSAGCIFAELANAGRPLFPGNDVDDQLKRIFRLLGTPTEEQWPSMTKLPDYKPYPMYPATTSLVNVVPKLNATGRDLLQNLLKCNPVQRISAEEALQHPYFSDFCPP
# Chain of CDK 5 (Q15078 whole entry partner): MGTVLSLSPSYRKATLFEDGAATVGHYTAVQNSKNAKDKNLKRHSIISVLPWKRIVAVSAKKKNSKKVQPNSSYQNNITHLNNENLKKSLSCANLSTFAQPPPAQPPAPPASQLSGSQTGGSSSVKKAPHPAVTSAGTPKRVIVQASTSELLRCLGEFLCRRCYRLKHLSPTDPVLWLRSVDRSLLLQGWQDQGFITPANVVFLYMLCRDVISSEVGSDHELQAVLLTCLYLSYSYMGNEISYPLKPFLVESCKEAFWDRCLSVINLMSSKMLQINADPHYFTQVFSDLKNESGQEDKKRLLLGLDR
Structure (SMILES),remaining activity at 0.1 µM (CDK2/cyclin A complex; [2]),"LC50 (concentration causing 50% net cell kill) (MCF-7 cell line; Homo sapiens, MCF7, 24 h)","IC (total growth inhibition) (MCF-7 cell line; Homo sapiens, MCF7, 24 h)","IC50 (MCF-7 cell line; Homo sapiens, MCF7)",remaining activity at 0.1 µM [1],further results
"CC(C)c1cnn2c(NCc3ccccc3)cc(NCCOCCO)nc12 [Example 3, 2-(2-(7-(Benzylamino)-3-isopropylpyrazolo[1,5-a]pyrimidin-5-ylamino)ethoxy)ethanol]",–,–,–,–,–,"IC50 [1]: 0.032 µM; IC50 (CDK2/cyclin A complex; Table 2, read-out: CDK2 IC50): > 1 µM; IC50 (CDK9/cyclin T complex; Table 2, read-out: CDK9 IC50): ~0.1 µM"
CC(C)c1cnn2c(NCc3ccccc3)cc(N[C@@H](CO)CCCCCCc3ccccn3)nc12 [ICEC-0325],24%,–,–,–,–,remaining activity at 0.1 µM (CDK 5): 96%; LC50 (concentration causing 50% net cell kill) (MCF-7 cell line; listed as ICEC-0325 (AS-570)): 17 µM; IC (total growth inhibition) (MCF-7 cell line; listed as ICEC-0325 (AS-570)): 32 µM; remaining activity at 0.1 µM (CDK9/cyclin T complex): 99%; remaining activity at 0.1 µM (CDK4): 100%
CC(C)c1cnn2c(NCc3ccccc3F)cc(NCCCCCCC#N)nc12 [ICEC-0186],9.3%,20 µM,50 µM,> 100 µM,–,"remaining activity at 0.1 µM (CDK 5): 94%; remaining activity at 0.1 µM (CDK9/cyclin T complex): 98%; IC50 (CDK9/cyclin T complex; Table 7, mean of three experiments, read-out: CDK9 kinase inhibition in vitro (IC50)): 0.16 µM; remaining activity at 0.1 µM (CDK4): 95%"
CC(C)c1cnn2c(NCc3ccccc3F)cc(N[C@@H](CO)CCCCCCN)nc12 [Example 12],–,–,–,–,–,"IC50 [1]: ~0.1 µM; IC50 (CDK2/cyclin A complex; Table 2, read-out: CDK2 IC50): > 1 µM; IC50 (CDK9/cyclin T complex; Table 2, read-out: CDK9 IC50): 0.1 to 1 µM"
CC(C)c1cnn2c(NCc3ccccc3F)cc(NCCCCCCN)nc12 [ICEC-0326],25%,92 µM,> 100 µM,> 100 µM,–,remaining activity at 0.1 µM (CDK 5): 91%; remaining activity at 0.1 µM (CDK9/cyclin T complex): 99%; remaining activity at 0.1 µM (CDK4): 99%
CC(C)c1cnn2c(NCc3ccccc3F)cc(NCCCCCCCNS(C)(=O)=O)nc12 [ICEC0212],91%,41 µM,71 µM,192 µM,63%,–
"CC(C)Nc1cc(NCc2ccccc2)n2ncc(C(C)C)c2n1 [Example 2, N^7-Benzyl-N^5,3-diisopropylpyrazolo[1,5-a]pyrimidine-5,7-diamine]",–,–,–,–,–,"IC50 [1]: > 1 µM; IC50 (CDK2/cyclin A complex; Table 2, read-out: CDK2 IC50): ~0.1 µM; IC50 (CDK9/cyclin T complex; Table 2, read-out: CDK9 IC50): > 1 µM"
CC(C)c1cnn2c(NCc3ccccc3)cc(NCCN3CCOCC3)nc12 [ICEC0259],88%,41 µM,79 µM,> 200 µM,54%,–
CC(C)c1cnn2c(NCc3cccc(OS(=O)(=O)c4cccc5c(N(C)C)cccc45)c3)cc(NCCCCCN)nc12 [ICEC0289],79%,19 µM,–,–,47%,–
CC[C@H](CO)Nc1cc(NCc2ccccc2)n2ncc(C(C)C)c2n1 [Example 6],–,–,–,–,–,"IC50 [1]: 0.07 µM; IC50 (CDK2/cyclin A complex; Table 2, read-out: CDK2 IC50): > 1 µM; IC50 (CDK9/cyclin T complex; Table 2, read-out: CDK9 IC50): ~0.1 µM"
CC(C)c1cnn2c(NCc3ccccc3F)cc(NCCCCCNc3cc(NCc4ccccc4F)n4ncc(C(C)C)c4n3)nc12 [ICEC0241],77%,75 µM,> 200 µM,> 200 µM,73%,–
CC(C)c1cnn2c(NCc3ccccc3F)cc(N[C@H]3CC[C@H](N)CC3)nc12 [ICEC0229],60%,27 µM,42 µM,109 µM,54%,–
"CC(C)c1cnn2c(NCc3ccccc3)cc(Cl)nc12 [ICEC0006, N-Benzyl-5-chloro-3-isopropylpyrazolo[1,5-a]pyrimidin-7-amine]",75%,139 µM,> 200 µM,> 200 µM,65%,–
CC(C)c1cnn2c(NCc3ccccc3)cc(NCC/C=C/CCN)nc12 [ICEC0278],72%,45 µM,–,–,21%,–
CC(C)c1cnn2c(NCc3ccccc3F)cc(NCCCCCCc3ccc(N)nc3)nc12 [ICEC0211],96%,39 µM,79 µM,> 200 µM,83%,–
CC(C)c1cnn2c(NCc3ccc(Cl)cc3)cc(Cl)nc12 [ICEC0244],73%,59 µM,117 µM,> 200 µM,81%,–
CC(C)c1cnn2c(N[C@H](C)c3ccccc3)cc(NCCCCCCN)nc12 [ICEC0274],96%,8 µM,23 µM,200 µM,100%,"IC50 (CDK2/cyclin A complex; Table 7, mean of three experiments, read-out: CDK2 kinase inhibition in vitro (IC50)): 0.03 µM"
CC(C)c1cnn2c(NCc3ccccc3F)cc(NCC3CCC(CN)CC3)nc12 (stereo not drawn) [ICEC0213],90%,–,119 µM,> 200 µM,–,CDK7 % remaining kinase activity after incubation with 100 nM of compound [1]: 81% (0.2); LC50 (concentration causing 50% net cell kill) (MCF-7 cell line): 31 µM
CC(C)c1cnn2c(NCc3ccccc3F)cc(NCC3CCC(CN)CC3)nc12 (stereo not drawn) [ICEC0214],–,–,–,–,–,CDK7 % remaining kinase activity after incubation with 100 nM of compound [1]: 60% (5.1); LC50 (concentration causing 50% net cell kill) (MCF-7 cell line): 140 µM; IC50 (MCF-7 cell line): > 200 µM; IC (total growth inhibition) (MCF-7 cell line): >200 µM; CDK2 % remaining kinase activity after incubation with 100 nM of compound (CDK2/cyclin A complex; [2]): 74% (3.3)
